From patent US12691070B2, “Cationic lipids and preparation method thereof” (RiboX Therapeutics HK Limited, priority 2023, dated 2026)

Tests used:
[1] = LNP size and polydispersity index (PDI) by dynamic light scattering; assay type: physicochemical; settings: for Size: in nm (unit assumed)
Method in brief: (§1)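 Dynamic light scattering and zeta potential measurements were run on PBS-dialyzed LNPs, which had been formed by microfluidic mixing at 12 ml/min with final lipid at 1.5 mM to 6 mM. RNA content and percent encapsulation were determined by Ribogreen with and without Triton X-100.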

[2] = LNP zeta potential (Zetasizer); assay type: physicochemical
Method in brief: as §1

[3] = RNA encapsulation efficacy by Quant-IT Ribogreen kit; assay type: physicochemical; settings: for Encapsulation Efficiency %: LNP with cirRNA (SEQ ID NO: 1); for Encapsulation Efficiency: LNP with mRNA (SEQ ID NO: 2)
Method in brief: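 Ribogreen read-out: encapsulation = 100% − (signal of intact RNA-LNPs / signal with Triton X-100). Particles: ionizable lipid:DSPC:Chol:DMG-PEG2000 50:10:38.5:1.5, ionizable lipid:ribonucleotide 15 or 6, final lipid 1.5–6 mM, PBS-dialyzed.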

Hep G2 cells [4] = assay: In vitro expression of firefly-luciferase, Hep G2; assay type: cell-based
Method in brief: (§2)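 Both cell lines receive RNA-LNPs carrying firefly-luciferase RNA at 100 ng/mL. Lysis follows washing at 72 h post-transfection, and luciferase activity is then quantified on a luminometer using a commercial luciferase assay reagent.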

RAW 264.7 cells [5] = assay: In vitro expression of firefly-luciferase, RAW 264.7; assay type: cell-based
Method in brief: as §2

Hep G2 cells [6] = assay: In vitro toxicity (CellTiter-Glo cell viability), Hep G2; assay type: cell-based;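 also: percent of untreated cells luminescence signal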
Method in brief: (§3)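 Luminescent ATP read-out (CellTiter-Glo) gives the viability value, taken 72 h after cells were exposed to RNA-loaded lipid nanoparticles at 1 μg/mL.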

RAW 264.7 cells [7] = assay: In vitro toxicity (CellTiter-Glo cell viability), RAW 264.7; assay type: cell-based;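 also: percent of untreated cells luminescence signal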
Method in brief: as §3

BALB/C mice [8] = assay: In vivo expression, whole-body luminescence (IVIS)
Experimental: 6-8 week old, female BALB/C mice were injected with 0.05 mg*kg-1 of RNA-LNPs encoding for firefly-luciferase by intravenous injection. At 6 hours post injection, animals were intraperitoneally injected with 15 mg/ml of Luciferin substrate and whole-body luminescence was determined by a bioluminescent in vivo imaging system (IVIS).

MCP-I = MCP-I cytokine elevation in serum; assay type: in vivo; settings: cirRNA (SEQ ID NO: 1) LNPs, mice
Experimental: 6-8 week old, female BALB/C mice were injected with 0.5 mg*kg-1 of RNA LNPs by intravenous injection. At 2 and 24 hours post injection, animals were bled and sera concentrations of MCP-I were determined by an immunoassay (Luminex).

[9] = system: Alanine Aminotransferase (ALT); assay: Liver enzyme elevation in serum, ALT; assay type: in vivo; settings: cirRNA (SEQ ID NO: 1) LNPs, BALB/C mice, intravenous 0.5 MPK
Experimental: (§4) 6-8 week old, female BALB/C mice were injected with 0.5 mg*kg-1 of RNA LNPs by intravenous injection. At 2 and 24 hours post injection, animals were bled and sera concentrations of Alanine Aminotransferase (ALT) and Aspartate Aminotransferase (AST) were determined by a blood chemistry analyzer.

[10] = system: Aspartate Aminotransferase (AST); assay: Liver enzyme elevation in serum, AST; assay type: in vivo; settings: cirRNA (SEQ ID NO: 1) LNPs, BALB/C mice, intravenous 0.5 MPK
Experimental: as §4

BALB/C mice [11] = assay: Local tolerance determination by footpad injection; assay type: in vivo; settings: cirRNA (SEQ ID NO: 1) LNP, 0.175 mg*kg-1 subcutaneous into the footpad, 24 hours post minus prior
Experimental: 6-8 week old, female BALB/C mice were injected with 0.175 mg*kg-1 RNA LNPs by subcutaneous injection into the footpad. Prior to, and 24 hours post injections, injected footpad thickness was determined by a caliper.

[12] = cirRNA (SEQ ID NO: 1) LNPs, firefly-luciferase luminescence, Hep G2 cells
[13] = mRNA (SEQ ID NO: 2) LNP, 100 ng/mL, 72 hours post transfection, luciferase activity
[14] = cirRNA (SEQ ID NO: 1) LNPs, firefly-luciferase luminescence, RAW 264.7 cells
[15] = cirRNA (SEQ ID NO: 1) LNPs, Hep G2 cells
[16] = mRNA (SEQ ID NO: 2) LNP, 1 μg/mL, 72 hours post transfection
[17] = cirRNA (SEQ ID NO: 1) LNPs, RAW 264.7 cells
[18] = cirRNA (SEQ ID NO: 1) LNPs, BALB/C mice
[19] = mRNA (SEQ ID NO: 2) LNP, 0.05 mg*kg-1 intravenous, 6 hours post injection

PDI ([1]; LNP with cirRNA (SEQ ID NO: 1))	Size ([1]; LNP with cirRNA (SEQ ID NO: 1))	PDI ([1]; LNP with mRNA (SEQ ID NO: 2))	Size ([1]; LNP with mRNA (SEQ ID NO: 2))	Zeta (mV) ([2]; LNP with cirRNA (SEQ ID NO: 1))	Zeta (mV) ([2]; LNP with mRNA (SEQ ID NO: 2))	Encapsulation Efficiency % [3] [%]	Encapsulation Efficiency [3] [%]	MCP-I in Sera 2 hours After 0.5 MPK Injection (MCP-I) [pg/mL]	Structure (SMILES)	In vitro Expression HepG2 (Hep G2 cells [4]; [12])	In vitro Expression HepG2 (Hep G2 cells [4]; [13])	In vitro Expression RAW (RAW 264.7 cells [5]; [14])	In vitro Expression RAW (RAW 264.7 cells [5]; [13])	In vitro Viability HepG2 (Hep G2 cells [6]; [15]) [%]	In vitro Viability HepG2 (Hep G2 cells [6]; [16]) [%]	In vitro Viability RAW (RAW 264.7 cells [7]; [17]) [%]	In vitro Viability RAW (RAW 264.7 cells [7]; [16]) [%]	In vivo Expression (Whole Body) (BALB/C mice [8]; [18])	In vivo Expression (Whole Body) (BALB/C mice [8]; [19])	ALT in Sera (IU/L) 2 hours After 0.5 MPK Injection [9] [IU/L]	also measured
0.04	89.19	0.1368	79.21	−0.71	3.197	97	89	3296.20	CCCCCCCCCCC(CCCCCCCC)COC(=O)CCCCCN(CCCCCCCCOC(=O)C(CCCCCC)CCCCCCCC)CCOC(=O)NCCN(C)C (centres unmarked) [Lipid 51, 2-octyldodecyl 10-(8-((2-hexyldecanoyl)oxy)octyl)-2-methyl-6-oxo-7-oxa-2,5,10-triazahexadecan-16-oate]	9.85E+05	4.66E+07	8.74E+06	2.63E+06	88	83	104	80	6.85E+08	1.78E+09	71.07	MCP-I in Sera 24 hours After 0.5 MPK Injection (MCP-I): 562.40 pg/mL; ALT in Sera (IU/L) 24 hours After 0.5 MPK Injection [9]: 45.50 IU/L; AST in Sera (IU/L) 2 hours After 0.5 MPK Injection [10]: 193.77 IU/L; AST in Sera (IU/L) 24 hours After 0.5 MPK Injection [10]: 94.73 IU/L; Footpad Thickness (24 h−0 h, mm) (BALB/C mice [11]): 1.11 mm
0.05	86.66	0.09823	75.46	−2.1	2.213	96	88.25	7911.52	CCCCCCCCC(CCCCCCCC)OC(=O)CCCCCCCN(CCCCCCCCOC(=O)C(CCCCCC)CCCCCCCC)CCOC(=O)NCCN(C)C (centres unmarked) [Lipid 66, heptadecan-9-yl 10-(8-((2-hexyldecanoyl)oxy)octyl)-2-methyl-6-oxo-7-oxa-2,5,10-triazaoctadecan-18-oate]	9.78E+07	1.59E+08	9.90E+06	6.79E+06	93	82	100	72	2.03E+09	3.50E+09	51.97	MCP-I in Sera 24 hours After 0.5 MPK Injection (MCP-I): 448.43 pg/mL; ALT in Sera (IU/L) 24 hours After 0.5 MPK Injection [9]: 63.6 IU/L; AST in Sera (IU/L) 2 hours After 0.5 MPK Injection [10]: 176.40 IU/L; AST in Sera (IU/L) 24 hours After 0.5 MPK Injection [10]: 148.60 IU/L; Footpad Thickness (24 h−0 h, mm) (BALB/C mice [11]): 1.43 mm
0.12	57.94	0.1057	61.9	−0.647	5.641	92	88	129.34	CCCCC/C=C\C/C=C\CCCCCCCCN(CCCCCCCC/C=C\CCCCCCCC)CCOC(=O)NCc1ncc[nH]1 [Lipid 68, 2-(((Z)-octadec-9-en-1-yl)((9Z,12Z)-octadeca-9,12-dien-1-yl)amino)ethyl ((1H-imidazol-2-yl)methyl)carbamate]	2.63E+06	3.74E+03	6.86E+05	5.58E+02	99	100	67	104	1.34E+08	1.54E+08	40.77	ALT in Sera (IU/L) 24 hours After 0.5 MPK Injection [9]: 33.37 IU/L; AST in Sera (IU/L) 2 hours After 0.5 MPK Injection [10]: 81.27 IU/L; AST in Sera (IU/L) 24 hours After 0.5 MPK Injection [10]: 60.20 IU/L; Footpad Thickness (24 h−0 h, mm) (BALB/C mice [11]): 1.00 mm
